# Laboratory results from patent US11072626B2, “Small molecule inhibitors of Galectin-3” (BRISTOL-MYERS SQUIBB COMPANY, priority 2017, dated 2021).
# Target: His-tagged recombinant human Gal-3 (hGal-3) (Homo sapiens (Human), UniProt P17931)
# Test: Gal-3 HTRF assay (hGal-3 / B-ASF)
# Format: binding
# Settings: 15 nM hGal-3, 15 nM B-ASF, table after Example 4, read-out: hGal3 IC50
# Procedure: ASSAY BUFFER Composition: 25 mM HEPES, 100 mM NaCl, 0.005% Tween 20, 0.05% BSA prepared in sterile water (all reagents from Sigma)
# Positive Control: 100% DMSO (1 μl)+His-tagged hGal-3 (20 μL)+B-ASF (20 μl)+Anti-His Terbium Antibody (5 μl)+Strep d2 Antibody (5 μl).
# Negative Control: 100% DMSO (1 μl)+His-tagged hGal-3 (20μL)+Anti His Terbium Antibody (5 μl)+Strep d2 Aantibody (5 μl).
# PROTOCOL: The Gal-3 assays were performed in 384 white Opti plates in three replicates at room temperature with gentle shaking at 250-300 rpm From the original stocks, […] working stock concentrations of His-tagged recombinant human Gal-3 (hGal-3) and that of B-ASF were prepared. From the working stock, 20 μl of hGal-3 (15 nM) and 20 μl B-ASF (15 nM) were added to the plates. In Negative Control, only hGal-3 was added. A concentration range of 50× working stocks were prepared for the compounds in 100% DMSO. Aliquots of 1 uL of the compounds were added to the wells and pre-incubated with 20 μl hGal-3 per well for 30 minutes Then 20 μl B-ASF were added and incubated for another 1 hour. To detect the signal, 5 μ(final conc. of 1.0 nM) terbium labelled Anti-His antibody was added and incubated for 30 min followed by adding 5 μ(final conc. of 20 nM) Streptavidin d2 and incubation for another 1 hour. The assay signal was detected using HTRF screen protocol (Excitation wavelength=340 nm, emission wavelength=615 nm/665 nm) on Envision 2104 Multilabel Reader. Data analysed using Toolset and Curve Master. Results are reported in the experimental section (IC50 in μM).
# His-tagged recombinant human Gal-3 (hGal-3), sequence (P17931 whole entry): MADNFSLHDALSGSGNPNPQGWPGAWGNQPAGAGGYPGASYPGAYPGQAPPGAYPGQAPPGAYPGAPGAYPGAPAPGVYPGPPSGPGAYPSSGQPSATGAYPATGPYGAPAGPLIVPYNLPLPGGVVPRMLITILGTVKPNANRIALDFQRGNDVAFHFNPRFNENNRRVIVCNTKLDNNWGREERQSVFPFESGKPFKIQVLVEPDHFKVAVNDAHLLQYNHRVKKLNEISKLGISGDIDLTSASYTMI
row,IC50 [nM],SMILES
1,46,"O=C(O)CO[C@@H]1[C@@H](n2cc(-c3cc(F)c(F)c(F)c3)nn2)[C@@H](O)[C@@H](CO)O[C@@H]1Sc1ccc(Cl)c(Cl)c1 [compound 2, 2-(((2R,3R,4S,5R,6R)-2-((3,4-dichlorophenyl)thio)-5-hydroxy-6-(hydroxymethyl)-4-(4-(3,4,5-trifluorophenyl)-1H-1,2,3-triazol-1-yl)tetrahydro-2H-pyran-3-yl)oxy)acetic acid]"
2,195,"OC[C@H]1O[C@H](Sc2ccc(Cl)c(Cl)c2)[C@H](OCCN2CCOCC2)[C@@H](n2cc(-c3cc(F)c(F)c(F)c3)nn2)[C@H]1O [compound 5, (2R,3R,4S,5R,6R)-6-((3,4-dichlorophenyl)thio)-2-(hydroxymethyl)-5-(2-morpholinoethoxy)-4-(4-(3,4,5-trifluorophenyl)-1H-1,2,3-triazol-1-yl)tetrahydro-2H-pyran-3-ol]"

# Same assay, conditions: 15 nM hGal-3, 15 nM B-ASF, table after Example 46, read-out: hGal3 IC50
row,SMILES,IC50 [nM]
1,COc1ccc(-c2cn([C@H]3[C@@H](O)[C@@H](CO)O[C@H](Sc4ccc(Cl)c(Cl)c4)[C@@H]3OCC(=O)O)nn2)cc1 [Example 47],1530
2,COc1cccc(-c2cn([C@H]3[C@@H](O)[C@@H](CO)O[C@H](Sc4ccc(Cl)c(Cl)c4)[C@@H]3OCC(=O)O)nn2)c1 [Example 48],740
3,O=C(O)CO[C@@H]1[C@@H](n2cc(-c3ccc(Cl)cc3)nn2)[C@@H](O)[C@@H](CO)O[C@@H]1Sc1ccc(Cl)c(Cl)c1 [Example 50],620
4,O=C(O)CO[C@@H]1[C@@H](n2cc(-c3ccccc3F)nn2)[C@@H](O)[C@@H](CO)O[C@@H]1Sc1ccc(Cl)c(Cl)c1 [Example 51],1610
5,Cc1ccccc1-c1cn([C@H]2[C@@H](O)[C@@H](CO)O[C@H](Sc3ccc(Cl)c(Cl)c3)[C@@H]2OCC(=O)O)nn1 [Example 53],1750
6,COC(=O)c1ccc(-c2cn([C@H]3[C@@H](O)[C@@H](CO)O[C@H](Sc4ccc(Cl)c(Cl)c4)[C@@H]3OCC(=O)O)nn2)cc1 [Example 56],7430
7,O=C(O)CO[C@@H]1[C@@H](n2cc(-c3cccc(F)n3)nn2)[C@@H](O)[C@@H](CO)O[C@@H]1Sc1ccc(Cl)c(Cl)c1 [Example 57],310

# Other lines, results leading:
row,IC50 [nM],SMILES
1,1340,Cc1cccc(-c2cn([C@H]3[C@@H](O)[C@@H](CO)O[C@H](Sc4ccc(Cl)c(Cl)c4)[C@@H]3OCC(=O)O)nn2)c1 [Example 49]
2,250,O=C(O)CO[C@@H]1[C@@H](n2cc(-c3cc(F)cc(F)c3)nn2)[C@@H](O)[C@@H](CO)O[C@@H]1Sc1ccc(Cl)c(Cl)c1 [Example 52]
3,230,Cc1cc(-c2cn([C@H]3[C@@H](O)[C@@H](CO)O[C@H](Sc4ccc(Cl)c(Cl)c4)[C@@H]3OCC(=O)O)nn2)ccc1F [Example 54]
4,70,O=C(O)CO[C@@H]1[C@@H](n2cc(-c3ccc(F)c(F)c3)nn2)[C@@H](O)[C@@H](CO)O[C@@H]1Sc1ccc(Cl)c(Cl)c1 [Example 55]
5,840,O=C(O)CO[C@@H]1[C@@H](n2cc(-c3ccc(F)cn3)nn2)[C@@H](O)[C@@H](CO)O[C@@H]1Sc1ccc(Cl)c(Cl)c1 [Example 58]
6,5550,O=C(O)CO[C@@H]1[C@@H](n2cc(-c3cc(F)ccn3)nn2)[C@@H](O)[C@@H](CO)O[C@@H]1Sc1ccc(Cl)c(Cl)c1 [Example 59]

# Same assay, conditions: 15 nM hGal-3, 15 nM B-ASF, three replicates, room temperature, read-out: hGal3 IC50
row,IC50 [nM],SMILES
1,5000,"CO[C@@H]1[C@@H](n2cc(C(=O)N(C)C3CC3)nn2)[C@@H](O)[C@@H](CO)O[C@@H]1Sc1ccc(Cl)c(Cl)c1 [Example 44, N-cyclopropyl-1-((2R,3R,4S,5R,6R)-2-((3,4-dichlorophenyl)thio)-5-hydroxy-6-(hydroxymethyl)-3-methoxytetrahydro-2H-pyran-4-yl)-N-methyl-1H-1,2,3-triazole-4-carboxamide]"
2,1520,"CO[C@@H]1[C@@H](n2nncc2C(=O)O)[C@@H](O)[C@@H](CO)O[C@@H]1Sc1ccc(Cl)c(Cl)c1 [Example 45, 1-((2R,3R,4S,5R,6R)-2-((3,4-dichlorophenyl)thio)-5-hydroxy-6-(hydroxymethyl)-3-methoxytetrahydro-2H-pyran-4-yl)-1H-1,2,3-triazole-5-carboxylic acid]"
3,1360,"O=C(O)CO[C@@H]1[C@@H](n2cc(-c3ccccc3)nn2)[C@@H](O)[C@@H](CO)O[C@@H]1Sc1ccc(Cl)c(Cl)c1 [Example 46, 2-(((2R,3R,4S,5R,6R)-2-((3,4-dichlorophenyl)thio)-5-hydroxy-6-(hydroxymethyl)-4-(4-phenyl-1H-1,2,3-triazol-1-yl)tetrahydro-2H-pyran-3-yl)oxy)acetic acid]"
4,2200,"OC[C@H]1O[C@H](Sc2ccc(Cl)c(Cl)c2)C[C@@H](n2cc(-c3cc(F)c(F)c(F)c3)nn2)[C@H]1O [Example 60, (2R,3R,4R,6R)-6-((3,4-dichlorophenyl)thio)-2-(hydroxymethyl)-4-(4-(3,4,5-trifluorophenyl)-1H-1,2,3-triazol-1-yl)tetrahydro-2H-pyran-3-ol]"
5,160,"O=S(=O)(c1ccc(Cl)c(Cl)c1)[C@@H]1C[C@@H](n2cc(-c3cc(F)c(F)c(F)c3)nn2)[C@@H](O)[C@@H](CO)O1 [Example 61, (2R,3R,4R,6R)-6-((3,4-dichlorophenyl)sulfonyl)-2-(hydroxymethyl)-4-(4-(3,4,5-trifluorophenyl)-1H-1,2,3-triazol-1-yl)tetrahydro-2H-pyran-3-ol]"
6,1560,"O=C(O)CO[C@@H]1[C@@H](n2cnc(-c3cccc(F)c3)c2)[C@@H](O)[C@@H](CO)O[C@@H]1Sc1ccc(Cl)c(Cl)c1 [Example 63, 2-(((2R,3R,4S,5R,6R)-2-((3,4-dichlorophenyl)thio)-4-(4-(3-fluorophenyl)-1H-imidazol-1-yl)-5-hydroxy-6-(hydroxymethyl)tetrahydro-2H-pyran-3-yl)oxy)acetic acid]"
